Drawing on US20100173935A1, “Muscarinic Receptor Agonists that are Effective in the Treatment of Pain, Alzheimer's Disease and Schizophrenia” (AstraZeneca AB, priority 2006, published 2010), this text covers EC50 for eleven molecules.

In experiment [1] the target is T1, hM1 (human Muscarinic receptor subtype 1) (Homo sapiens, UniProt P11229).
T1 construct: expressed in transfected cells; host or cells: CHO cells (ATCC)
T1 sequence (P11229 1-460): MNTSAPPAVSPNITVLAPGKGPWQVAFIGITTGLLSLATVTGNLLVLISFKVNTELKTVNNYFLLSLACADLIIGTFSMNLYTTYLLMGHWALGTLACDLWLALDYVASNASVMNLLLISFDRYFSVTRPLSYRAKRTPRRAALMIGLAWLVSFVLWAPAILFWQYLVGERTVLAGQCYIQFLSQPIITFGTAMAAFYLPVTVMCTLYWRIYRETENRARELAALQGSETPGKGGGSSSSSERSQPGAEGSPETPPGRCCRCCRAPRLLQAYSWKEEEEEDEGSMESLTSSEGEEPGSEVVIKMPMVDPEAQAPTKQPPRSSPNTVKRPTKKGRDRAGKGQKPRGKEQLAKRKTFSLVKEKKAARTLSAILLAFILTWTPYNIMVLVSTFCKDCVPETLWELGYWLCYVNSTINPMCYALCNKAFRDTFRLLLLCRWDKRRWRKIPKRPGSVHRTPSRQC
The experiment can be described thus: Human M1 calcium mobilization FLIPR assay. In kind it is cell-based. To be noted: CHO cells expressing hM1, Ca2+ release. The procedure:
(§1) The compound activity in the present invention (EC50 or IC50) was measured using a 384 plate-based imaging assay that monitors drug induced intracellular Ca^2+ release in whole cells. Activation of hM1 (human Muscarinic receptor subtype 1, gene bank access NM_000738), rM1 (rat Muscarinic receptor subtype 1, gene bank access NM_080773), hM3 (human Muscarinic receptor subtype 3, gene bank access NM_000740NM_000740) and hM5 (human Muscarinic receptor subtype 5, gene bank access NM_0121258), receptors expressed in CHO cells (chinese hamster ovary cells, ATCC) was quantified in a Molecular Devices FLIPR II™ instrument as an increase in fluorescent signal. Inhibition of hM3 and hM5 by compounds was determined by the decrease in fluorescent signal in response to 20 nM carbachol activation.
(§2) CHO cells were plated in 384-black polylysine coated plate (Costar) at 8000 cells/well/50 μl for 24 hours or 4000 cells/well for 48 hours in a humidified incubator (5% CO2 and 37° C.) in DMEM/F12 medium without selection agent. Prior to the experiment the cell culture medium was removed from the plates by inversion. A loading solution of 30 μl of Hank's balanced salt solution, 10 mM Hepes and 2.5 mM Probenicid at Ph 7.4 (Cat no. 311-520-VL, Wisent) with 2 μM calcium indicator dye (FLUO-3AM, Molecular Probes F14202) was added to each well. Plates were incubated at 37° C. for 60 minutes prior to start the experiment. The incubation was terminated by washing the cells four times in assay buffer, leaving a residual 25 μl buffer per well. Cell plates were then transferred to the FLIPR, ready for compound additions.
(§3) The day of experiment, carbachol and compounds were diluted in three-fold concentration range (10 points serial dilution) for addition by FLIPR instrument. For all calcium assays, a baseline reading was taken for 30 seconds followed by the addition of 12.5 μl (25 μl for hM1 and rM1) of compounds, resulting in a total well volume of 37.5 μl (50 μl for hM1 and rM1). Data were collected every 1.6 seconds for 300 seconds. For hM3 and hM5 an additional 12.5 μl of carbachol (20 nM final) was added at 300 seconds. After this addition of carbachol (producing a final volume of 50 μl), the FLIPR continued to collect data every 2 seconds for 240 seconds. The fluorescence emission was read using filter 1 (emission 520-545 nm) by the FLIPR on board CCD camera.
(§4) Calcium mobilization output data were calculated as the maximal relative fluorescence unit (RFU) minus the minal value for both compound and agonist reading frame (except for hM1 and rM1 using only the maximal RFU). Data were analyzed using sigmoidal fits of a non-linear curve-fitting program (XLfit version 5.0.6 from ID Business Solutions Limited, Guildford, UK). All EC50 and IC50 values are reported as arithmetic means±standard error of mean of ‘n’ independent experiments.

For experiment [2], the target named is T2, hM5 (human Muscarinic receptor subtype 5) (Homo sapiens, UniProt P08912).
T2 construct: expressed in transfected cells; host or cells: CHO cells (ATCC)
T2 sequence (P08912 1-532): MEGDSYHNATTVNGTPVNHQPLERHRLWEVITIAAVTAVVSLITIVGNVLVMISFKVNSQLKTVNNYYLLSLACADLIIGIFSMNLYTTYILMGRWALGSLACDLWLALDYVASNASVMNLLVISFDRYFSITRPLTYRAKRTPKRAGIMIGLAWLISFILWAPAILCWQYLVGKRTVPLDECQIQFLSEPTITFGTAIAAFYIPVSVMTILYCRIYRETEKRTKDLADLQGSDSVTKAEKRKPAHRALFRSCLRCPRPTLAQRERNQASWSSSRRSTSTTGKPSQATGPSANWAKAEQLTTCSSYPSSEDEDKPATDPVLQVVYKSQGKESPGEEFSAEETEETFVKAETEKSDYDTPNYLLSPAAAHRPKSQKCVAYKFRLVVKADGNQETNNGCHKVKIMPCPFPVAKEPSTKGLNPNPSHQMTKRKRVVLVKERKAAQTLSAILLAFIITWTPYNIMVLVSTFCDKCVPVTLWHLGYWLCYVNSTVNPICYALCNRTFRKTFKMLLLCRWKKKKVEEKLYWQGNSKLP
The experiment can be described thus: Human M5 calcium mobilization FLIPR assay. In kind it is cell-based. To be noted: CHO cells expressing hM5, Ca2+ release. On the procedure:
as §1, §2, §3, §4
A general note: A change in cytosolic calcium serves as a functional read-out for many receptors and channels.

Regarding `CCOC(=O)N1CC[C@H](N2CCC(n3c(=O)[nH]c4ccc(Cl)cc43)CC2)C1` [Example 42, Ethyl (3S)-3-[4-(6-chloro-2-oxo-2,3-dihydro-1H-benzimidazol-1-yl)piperidin-1-yl]pyrrolidine-1-carboxylate], the half-maximal effective concentration (EC50) in experiment [1] was determined as 3 nM. For the molecule `O=C1CCCN1CCC(=O)N1CC[C@H](N2CCC(N3C(=O)Cc4ccccc43)CC2)C1` [Example 29, 1-(1-{(3S)-1-[3-(2-oxopyrrolidin-1-yl)propanoyl]pyrrolidin-3-yl}piperidin-4-yl)-1,3-dihydro-2H-indol-2-one], the EC50 in experiment [1] was found to be 3.5 nM; in experiment [2], 708 nM. Take `CCOC(=O)N1CC[C@@H](N2CCC(n3c(=O)[nH]c4ccccc43)CC2)C1` [Example 16, Ethyl (3R)-3-[4-(2-oxo-2,3-dihydro-1H-benzimidazol-1-yl)piperidin-1-yl]pyrrolidine-1-carboxylate]: the EC50 in experiment [1] was 130 nM; in experiment [2] it was over 40000 nM.

Turning to `CCOC(=O)N1CC[C@H](N2CCC(n3c(=O)[nH]c4ccc(C#N)cc43)CC2)C1` [Example 41, Ethyl (3S)-3-[4-(6-cyano-2-oxo-2,3-dihydro-1H-benzimidazol-1-yl)piperidin-1-yl]pyrrolidine-1-carboxylate], the EC50 in experiment [1] worked out at 3.4 nM; in experiment [2], 534 nM. The corresponding values for `Cn1c(=O)n(C2CCN([C@H]3CCN(C(=O)CCN4CCCC4=O)C3)CC2)c2ccccc21` [Example 24, 1-methyl-3-(1-{(3S)-1-[3-(2-oxopyrrolidin-1-yl)propanoyl]pyrrolidin-3-yl}piperidin-4-yl)-1,3-dihydro-2H-benzimidazol-2-one] are 203 nM and over 40000 nM. Take `O=C1CCCN1CCCC(=O)N1CC[C@H](N2CCC(n3c(=O)[nH]c4ccccc43)CC2)C1` [Example 22, 1-(1-{(3S)-1-[4-(2-oxopyrrolidin-1-yl)butanoyl]pyrrolidin-3-yl}piperidin-4-yl)-1,3-dihydro-2H-benzimidazol-2-one]: in experiment [1], the EC50 is 37.9 nM.

Consider `CCOC(=O)N1CC[C@H](N2CCC(n3c(=O)[nH]c4ccc(F)cc43)CC2)C1` (single isomer, unassigned) [Example 35], for which the results for the EC50 in experiment [1] and in experiment [2] were 4.5 nM and 905 nM, respectively.

Turning to `CCOC(=O)N1CCC(N2CCC(C3C(=O)Nc4ccccc43)CC2)C1` (centres unmarked) [Example 13, Ethyl 3-[4-(2-oxo-2,3-dihydro-1H-indol-3-yl)piperidin-1-yl]pyrrolidine-1-carboxylate], the concentration for a half-maximal effect (EC50) in experiment [1] was 113 nM; in experiment [2], over 40000 nM. Consider `CCOC(=O)N1CC[C@H](N2CCC(N3C(=O)Cc4ccccc43)CC2)C1` [Example 26, Ethyl (3S)-3-[4-(2-oxo-2,3-dihydro-1H-indol-1-yl)piperidin-1-yl]pyrrolidine-1-carboxylate], for which the EC50 in experiment [1] turned out to be 30.8 nM; in experiment [2] it was 341 nM. The corresponding values for `CCOC(=O)N1CC[C@@H](N2CCC(n3c(=O)[nH]c4ccc(F)cc43)CC2)C1` (single isomer, unassigned) [Example 36] are 40.8 nM and over 40000 nM. Take `O=C(C1CCCC1)N1CC[C@H](N2CCC(n3c(=O)[nH]c4ccccc43)CC2)C1` [Example 19, 1-{1-[(3S)-1-(cyclopentylcarbonyl)pyrrolidin-3-yl]piperidin-4-yl}-1,3-dihydro-2H-benzimidazol-2-one]: the results for the EC50 in experiment [1] and in experiment [2] were 9.6 nM and 833 nM, respectively.

As usually defined, the EC50 is the concentration that produces a half-maximal response.
